A short description of this data set: method code SF, from DOI: 10.1515/bc.2003.056, PMID: 12715901.

As usually defined, the logP is the decadic logarithm of the partition coefficient of the neutral form, usually between octanol and water.

In turn, `CCOC(=O)C1(CC)CCC=[N+]1[O-]` (stereo unspecified) displayed a logP of -0.6.
`CCC1(C(=O)OC(C)C)CCC=[N+]1[O-]` (stereo unspecified) came in with a logP of -0.18.
The same measure for `CCC1(C(=O)OC(C)(C)C)CCC=[N+]1[O-]` (stereo unspecified): 0.18.
The same measure for `CCCC1(C(=O)OC(C)C)CCC=[N+]1[O-]` (stereo unspecified): 0.29; for `CCC(C)OC(=O)C1(CC)CCC=[N+]1[O-]` (stereo unspecified): 0.28.
The molecule `CCCOC(=O)C1(CCC)CCC=[N+]1[O-]` (stereo unspecified) had a logP of 0.42.
The same measure for `CC(C)OC(=O)C1(C)CCC=[N+]1[O-]` (stereo unspecified): -0.7; for `CCCOC(=O)C1(CC)CCC=[N+]1[O-]` (stereo unspecified): -0.11; for `CCCCOC(=O)C1(CC)CCC=[N+]1[O-]` (stereo unspecified): 0.46.
The same measure for `CCCCOC(=O)C1(CCC)CCC=[N+]1[O-]` (stereo unspecified): 0.89; for `CCCC1(C(=O)OC(C)(C)C)CCC=[N+]1[O-]` (stereo unspecified): 0.43.

Values taken from the SangsterLogP compilation.
